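Compound exposure: 48 hours, 5 concentrations, 96-well plates. Here, GI50 denotes the concentration required for 50% inhibition of growth.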 Calls of active or inactive are those of the source. Rule as the data show it: active = GI50 up to about 1.1 µM and inactive = higher.
Experiments:
Assay in all cases: DTP human tumour cell line panel, 48 h
U-251 = system: U-251
Malme-3M = system: Malme-3M
LXFL 529 = system: LXFL 529
SNB-78 = system: SNB-78
TK-10 = system: TK-10
SK-MEL-28 = system: SK-MEL-28
OVCAR-5 = system: OVCAR-5
SNB-75 = system: SNB-75
A549 = system: A549
OVCAR-3 = system: OVCAR-3
CCRF-CEM = system: CCRF-CEM
SNB-19 = system: SNB-19
COLO 205 = system: COLO 205
UACC-62 = system: UACC-62
SF-539 = system: SF-539
KM-20L2 = system: KM-20L2
SK-MEL-2 = system: SK-MEL-2
HT-29 = system: HT-29
NCI-H23 = system: NCI-H23
SF-295 = system: SF-295
DMS-114 = system: DMS-114
SF-268 = system: SF-268
DMS-273 = system: DMS-273
RXF 631 = system: RXF 631
RPMI-8226 = system: RPMI-8226
KM12 = system: KM12
NCI-H226 = system: NCI-H226
HL-60 = system: HL-60
SW-620 = system: SW-620
LOX IMVI = system: LOX IMVI
HCT-116 = system: HCT-116
EKVX = system: EKVX
OVCAR-4 = system: OVCAR-4
HCT-15 = system: HCT-15
SK-MEL-5 = system: SK-MEL-5
OVCAR-8 = system: OVCAR-8
CAKI-1 = system: CAKI-1
UO-31 = system: UO-31
IGROV-1 = system: IGROV-1
NCI-H460 = system: NCI-H460
M19-MEL = system: M19-MEL
XF498 = system: XF498
786-0 = system: 786-0
DLD-1 = system: DLD-1
HCC 2998 = system: HCC 2998
SN12C = system: SN12C
ACHN = system: ACHN
M14 = system: M14
MOLT-4 = system: MOLT-4
K562 = system: K562
A498 = system: A498
RXF 393 = system: RXF 393
HOP-18 = system: HOP-18
SK-OV-3 = system: SK-OV-3
UACC-257 = system: UACC-257
NCI-H522 = system: NCI-H522
SR = system: SR
HOP-92 = system: HOP-92
HOP-62 = system: HOP-62

Compound: Cc1cccc(C)c1NC(=O)CCC/C(CC(=O)c1ccc(F)cc1)=N\NC(=O)C(=O)NN
- GI50 (U-251): > 100 µM (inactive)
- GI50 (Malme-3M): > 100 µM (inactive)
- GI50 (LXFL 529): > 100 µM (inactive)
- GI50 (SNB-78): > 100 µM (inactive)
- GI50 (TK-10): > 100 µM (inactive)
- GI50 (SK-MEL-28): > 100 µM (inactive)
- GI50 (OVCAR-5): > 100 µM (inactive)
- GI50 (SNB-75): > 100 µM (inactive)
- GI50 (A549): > 100 µM (inactive)
- GI50 (OVCAR-3): > 100 µM (inactive)
- GI50 (CCRF-CEM): > 100 µM (inactive)
- GI50 (SNB-19): > 100 µM (inactive)
- GI50 (COLO 205): > 100 µM (inactive)
- GI50 (UACC-62): > 100 µM (inactive)
- GI50 (SF-539): > 100 µM (inactive)
- GI50 (KM-20L2): > 100 µM (inactive)
- GI50 (SK-MEL-2): > 100 µM (inactive)
- GI50 (HT-29): > 100 µM (inactive)
- GI50 (NCI-H23): > 100 µM (inactive)
- GI50 (SF-295): > 100 µM (inactive)
- GI50 (DMS-114): > 100 µM (inactive)
- GI50 (SF-268): > 100 µM (inactive)
- GI50 (DMS-273): > 100 µM (inactive)
- GI50 (RXF 631): > 100 µM (inactive)
- GI50 (RPMI-8226): > 100 µM (inactive)
- GI50 (KM12): > 100 µM (inactive)
- GI50 (NCI-H226): > 100 µM (inactive)
- GI50 (HL-60): > 100 µM (inactive)
- GI50 (SW-620): > 100 µM (inactive)
- GI50 (LOX IMVI): > 100 µM (inactive)
- GI50 (HCT-116): > 100 µM (inactive)
- GI50 (EKVX): > 100 µM (inactive)
- GI50 (OVCAR-4): > 100 µM (inactive)
- GI50 (HCT-15): > 100 µM
- GI50 (SK-MEL-5): > 100 µM (inactive)
- GI50 (OVCAR-8): > 100 µM (inactive)
- GI50 (CAKI-1): > 100 µM (inactive)
- GI50 (UO-31): > 100 µM (inactive)
- GI50 (IGROV-1): > 100 µM (inactive)
- GI50 (NCI-H460): > 100 µM (inactive)
- GI50 (M19-MEL): > 100 µM (inactive)
- GI50 (XF498): > 100 µM (inactive)
- GI50 (786-0): > 100 µM (inactive)
- GI50 (DLD-1): > 100 µM (inactive)
- GI50 (HCC 2998): > 100 µM (inactive)
- GI50 (SN12C): > 100 µM (inactive)
- GI50 (ACHN): > 100 µM (inactive)
- GI50 (M14): > 100 µM (inactive)
- GI50 (MOLT-4): > 100 µM (inactive)
- GI50 (K562): > 100 µM (inactive)
- GI50 (A498): > 100 µM (inactive)
- GI50 (RXF 393): 21.9 µM (inactive)
- GI50 (HOP-18): > 100 µM (inactive)
- GI50 (SK-OV-3): > 100 µM (inactive)
- GI50 (UACC-257): > 100 µM (inactive)

Compound: CCOc1ccc2nc(NC(=O)c3c/c(=N\NC(=O)C[N+](C)(C)C)c4ccc(O)cc4o3)sc2c1
- GI50 (U-251): 2.89 µM (inactive)
- GI50 (Malme-3M): 1.28 µM (inactive)
- GI50 (LXFL 529): 2.02 µM (inactive)
- GI50 (SNB-78): 5 µM (inactive)
- GI50 (TK-10): 21.7 µM (inactive)
- GI50 (NCI-H522): 1.95 µM (inactive)
- GI50 (SK-MEL-28): 5.75 µM (inactive)
- GI50 (OVCAR-5): 3.37 µM (inactive)
- GI50 (SNB-75): 1.52 µM (inactive)
- GI50 (A549): 2.76 µM (inactive)
- GI50 (OVCAR-3): 0.13 µM (active)
- GI50 (CCRF-CEM): 1.6 µM (inactive)
- GI50 (SNB-19): 5.65 µM (inactive)
- GI50 (COLO 205): 1.63 µM (inactive)
- GI50 (UACC-62): 1.65 µM (inactive)
- GI50 (SF-539): 3.85 µM (inactive)
- GI50 (KM-20L2): 3.21 µM (inactive)
- GI50 (SK-MEL-2): 2.43 µM (inactive)
- GI50 (HT-29): 3.56 µM (inactive)
- GI50 (NCI-H23): 1.59 µM (inactive)
- GI50 (SF-295): 3.38 µM (inactive)
- GI50 (SR): 3.05 µM (inactive)
- GI50 (DMS-114): 1.91 µM (inactive)
- GI50 (SF-268): 3.29 µM (inactive)
- GI50 (DMS-273): 3.34 µM (inactive)
- GI50 (RXF 631): 6.03 µM (inactive)
- GI50 (RPMI-8226): 2.15 µM (inactive)
- GI50 (KM12): 5.28 µM (inactive)
- GI50 (NCI-H226): 3.25 µM (inactive)
- GI50 (HL-60): 1.59 µM (inactive)
- GI50 (SW-620): 2.19 µM (inactive)
- GI50 (LOX IMVI): 1.14 µM (inactive)
- GI50 (HCT-116): 3.4 µM (inactive)
- GI50 (EKVX): 4.44 µM (inactive)
- GI50 (OVCAR-4): 1.74 µM (inactive)
- GI50 (HCT-15): 5.93 µM
- GI50 (SK-MEL-5): 0.555 µM (active)
- GI50 (OVCAR-8): 2.14 µM (inactive)
- GI50 (CAKI-1): 6.04 µM (inactive)
- GI50 (UO-31): 11.8 µM (inactive)
- GI50 (IGROV-1): 2.65 µM (inactive)
- GI50 (NCI-H460): 3.04 µM (inactive)
- GI50 (M19-MEL): 0.294 µM (active)
- GI50 (XF498): 2.83 µM (inactive)
- GI50 (786-0): 3.62 µM (inactive)
- GI50 (DLD-1): 2.52 µM (inactive)
- GI50 (HCC 2998): 7.53 µM (inactive)
- GI50 (SN12C): 3.55 µM (inactive)
- GI50 (ACHN): 4.52 µM (inactive)
- GI50 (M14): 1.63 µM (inactive)
- GI50 (MOLT-4): 1.72 µM (inactive)
- GI50 (HOP-92): 1.72 µM (inactive)
- GI50 (K562): 1.92 µM (inactive)
- GI50 (A498): 14.6 µM (inactive)
- GI50 (RXF 393): 5.87 µM (inactive)
- GI50 (HOP-18): 2.06 µM (inactive)
- GI50 (SK-OV-3): 11.3 µM (inactive)
- GI50 (UACC-257): 1.49 µM (inactive)

Compound: O=C1OCC2C1C1c3ccccc3C(O)c3ccccc3C21 (centres undefined)
- GI50 (U-251): > 100 µM (inactive)
- GI50 (Malme-3M): > 100 µM (inactive)
- GI50 (LXFL 529): > 100 µM (inactive)
- GI50 (SNB-78): > 100 µM (inactive)
- GI50 (TK-10): > 100 µM (inactive)
- GI50 (SK-MEL-28): > 100 µM (inactive)
- GI50 (OVCAR-5): > 100 µM (inactive)
- GI50 (SNB-75): > 100 µM (inactive)
- GI50 (A549): > 100 µM (inactive)
- GI50 (OVCAR-3): > 100 µM (inactive)
- GI50 (CCRF-CEM): > 100 µM (inactive)
- GI50 (COLO 205): > 100 µM (inactive)
- GI50 (UACC-62): > 100 µM (inactive)
- GI50 (SF-539): > 100 µM (inactive)
- GI50 (KM-20L2): > 100 µM (inactive)
- GI50 (SK-MEL-2): > 100 µM (inactive)
- GI50 (HT-29): > 100 µM (inactive)
- GI50 (NCI-H23): > 100 µM (inactive)
- GI50 (SF-295): > 100 µM (inactive)
- GI50 (SR): > 100 µM (inactive)
- GI50 (DMS-114): > 100 µM (inactive)
- GI50 (SF-268): > 100 µM (inactive)
- GI50 (RXF 631): > 100 µM (inactive)
- GI50 (RPMI-8226): > 100 µM (inactive)
- GI50 (KM12): > 100 µM (inactive)
- GI50 (NCI-H226): > 100 µM (inactive)
- GI50 (HL-60): > 100 µM (inactive)
- GI50 (SW-620): > 100 µM (inactive)
- GI50 (LOX IMVI): > 100 µM (inactive)
- GI50 (HCT-116): > 100 µM (inactive)
- GI50 (EKVX): > 100 µM (inactive)
- GI50 (OVCAR-4): > 100 µM (inactive)
- GI50 (HCT-15): > 100 µM
- GI50 (SK-MEL-5): > 100 µM (inactive)
- GI50 (OVCAR-8): > 100 µM (inactive)
- GI50 (CAKI-1): > 100 µM (inactive)
- GI50 (UO-31): > 100 µM (inactive)
- GI50 (IGROV-1): > 100 µM (inactive)
- GI50 (NCI-H460): > 100 µM (inactive)
- GI50 (HOP-62): > 100 µM (inactive)
- GI50 (M19-MEL): > 100 µM (inactive)
- GI50 (XF498): > 100 µM (inactive)
- GI50 (786-0): > 100 µM (inactive)
- GI50 (DLD-1): > 100 µM (inactive)
- GI50 (HCC 2998): > 100 µM (inactive)
- GI50 (SN12C): > 100 µM (inactive)
- GI50 (ACHN): > 100 µM (inactive)
- GI50 (M14): > 100 µM (inactive)
- GI50 (MOLT-4): > 100 µM (inactive)
- GI50 (HOP-92): > 100 µM (inactive)
- GI50 (K562): > 100 µM (inactive)
- GI50 (A498): > 100 µM (inactive)
- GI50 (RXF 393): > 100 µM (inactive)
- GI50 (HOP-18): > 100 µM (inactive)
- GI50 (SK-OV-3): > 100 µM (inactive)
- GI50 (UACC-257): > 100 µM (inactive)

Reference: ChEMBL document CHEMBL1201862, “PubChem BioAssay data set” (2004)
